Experimental data reported in the NIST ThermoML archive (doi:10.1016/j.jct.2012.04.026).

What was measured:
[1] = refractive index (Na D-line) (dimensionless); conditions: Liquid, Standard Abbe refractometry
[2] = Liquid, Vibrating tube method
[3] = refractive index (Na D-line) (dimensionless); wn = mass fraction of the nth substance listed; conditions: 313.15 K, Liquid, Standard Abbe refractometry
[4] = wn = mass fraction of the nth substance listed; conditions: 313.15 K, Liquid, Vibrating tube method

CCCn1cc[n+](C)c1.O=S(=O)([N-]S(=O)(=O)C(F)(F)F)C(F)(F)F
Conditions | mass density, [2] [kg/m3] | refractive index, [1]
298.15 K, 101.33 kPa | 1473.97 | 1.42525
313.15 K, 101 kPa | 1458.33 | 1.42016
313.15 K, 101.3 kPa | 1458.33 | –
313.15 K, 101.33 kPa | – | 1.42016

CCCCCC[n+]1ccn(C)c1.O=S(=O)([N-]S(=O)(=O)C(F)(F)F)C(F)(F)F + CCO
Conditions | mass density, 101 kPa [kg/m3] | mass density, 101.3 kPa [kg/m3] | refractive index, 101 kPa | refractive index, 101.3 kPa | refractive index, 10234 kPa
[3], w2 = 0.099 | – | – | 1.41392 | 1.41392 | 1.41392
[3], w2 = 0.231 | – | – | 1.40128 | 1.40128 | 1.40128
[3], w2 = 0.328 | – | – | 1.39325 | 1.39325 | 1.39325
[3], w2 = 0.529 | – | – | 1.37912 | 1.37912 | 1.37912
[3], w2 = 0.646 | – | – | 1.37165 | 1.37165 | 1.37165
[3], w2 = 0.74 | – | – | 1.36626 | 1.36626 | 1.36626
[3], w2 = 0.901 | – | – | 1.35782 | 1.35782 | 1.35782
[4], w2 = 0.099 | 1270.96 | 1270.96 | – | – | –
[4], w2 = 0.231 | 1161.07 | 1161.07 | – | – | –
[4], w2 = 0.328 | 1092.32 | 1092.32 | – | – | –
[4], w2 = 0.529 | 973.37 | 973.37 | – | – | –
[4], w2 = 0.646 | 914.93 | 914.93 | – | – | –
[4], w2 = 0.74 | 872.96 | 872.96 | – | – | –
[4], w2 = 0.901 | 808.24 | 808.24 | – | – | –

CCn1cc[n+](C)c1.O=S(=O)([N-]S(=O)(=O)C(F)(F)F)C(F)(F)F + CCO
Conditions | mass density, 101 kPa [kg/m3] | mass density, 101.3 kPa [kg/m3] | refractive index, 101 kPa | refractive index, 101.3 kPa | refractive index, 10234 kPa
[3], w2 = 0.014 | – | – | 1.41547 | 1.41547 | 1.41547
[3], w2 = 0.034 | – | – | 1.41333 | 1.41333 | 1.41333
[3], w2 = 0.072 | – | – | 1.40945 | 1.40945 | 1.40945
[3], w2 = 0.126 | – | – | 1.40425 | 1.40425 | 1.40425
[3], w2 = 0.278 | – | – | 1.3915 | 1.3915 | 1.3915
[3], w2 = 0.324 | – | – | 1.38812 | 1.38812 | 1.38812
[3], w2 = 0.635 | – | – | 1.36939 | 1.36939 | 1.36939
[4], w2 = 0.014 | 1481.64 | 1481.64 | – | – | –
[4], w2 = 0.034 | 1456.07 | 1456.07 | – | – | –
[4], w2 = 0.072 | 1409.69 | 1409.69 | – | – | –
[4], w2 = 0.126 | 1347.49 | 1347.49 | – | – | –
[4], w2 = 0.278 | 1195.34 | 1195.34 | – | – | –
[4], w2 = 0.324 | 1155.44 | 1155.44 | – | – | –
[4], w2 = 0.635 | 943.07 | 943.07 | – | – | –

CCn1cc[n+](C)c1.O=S(=O)([N-]S(=O)(=O)C(F)(F)F)C(F)(F)F
Conditions | mass density, [2] [kg/m3] | refractive index, [1]
298.15 K, 101.33 kPa | 1518.74 | 1.42307
313.15 K, 101 kPa | 1502.2 | 1.41695
313.15 K, 101.3 kPa | 1502.2 | –
313.15 K, 101.33 kPa | – | 1.41695

CCCCCCC [heptane]
298.15 K, 101.33 kPa
Conditions | mass density [kg/m3] | refractive index
[1] | – | 1.38529
[2] | 679.57 | –

CCCC[n+]1ccn(C)c1.O=S(=O)([N-]S(=O)(=O)C(F)(F)F)C(F)(F)F
Conditions | mass density, [2] [kg/m3] | refractive index, [1]
298.15 K, 101.33 kPa | 1436.1 | 1.42672
313.15 K, 101 kPa | 1420.7 | 1.42437
313.15 K, 101.3 kPa | 1420.7 | –
313.15 K, 101.33 kPa | – | 1.42437

CCCn1cc[n+](C)c1.O=S(=O)([N-]S(=O)(=O)C(F)(F)F)C(F)(F)F + CCO
Conditions | mass density, 101 kPa [kg/m3] | mass density, 101.3 kPa [kg/m3] | refractive index, 101 kPa | refractive index, 101.3 kPa | refractive index, 10234 kPa
[3], w2 = 0.019 | – | – | 1.41801 | 1.41801 | 1.41801
[3], w2 = 0.035 | – | – | 1.4161 | 1.4161 | 1.4161
[3], w2 = 0.082 | – | – | 1.41105 | 1.41105 | 1.41105
[3], w2 = 0.133 | – | – | 1.40604 | 1.40604 | 1.40604
[3], w2 = 0.186 | – | – | 1.40101 | 1.40101 | 1.40101
[3], w2 = 0.267 | – | – | 1.39403 | 1.39403 | 1.39403
[3], w2 = 0.55 | – | – | 1.37499 | 1.37499 | 1.37499
[4], w2 = 0.019 | 1433.96 | 1433.96 | – | – | –
[4], w2 = 0.035 | 1414.83 | 1414.83 | – | – | –
[4], w2 = 0.082 | 1362.5 | 1362.5 | – | – | –
[4], w2 = 0.133 | 1309.15 | 1309.15 | – | – | –
[4], w2 = 0.186 | 1256.95 | 1256.95 | – | – | –
[4], w2 = 0.267 | 1183.97 | 1183.97 | – | – | –
[4], w2 = 0.55 | 983.52 | 983.52 | – | – | –

CCCC[n+]1ccn(C)c1.O=S(=O)([N-]S(=O)(=O)C(F)(F)F)C(F)(F)F + CCO
Conditions | mass density, 101 kPa [kg/m3] | mass density, 101.3 kPa [kg/m3] | refractive index, 101 kPa | refractive index, 101.3 kPa | refractive index, 10234 kPa
[3], w2 = 0.008 | – | – | 1.42305 | 1.42305 | 1.42305
[3], w2 = 0.015 | – | – | 1.42222 | 1.42222 | 1.42222
[3], w2 = 0.032 | – | – | 1.41981 | 1.41981 | 1.41981
[3], w2 = 0.084 | – | – | 1.41301 | 1.41301 | 1.41301
[3], w2 = 0.156 | – | – | 1.40517 | 1.40517 | 1.40517
[3], w2 = 0.202 | – | – | 1.40056 | 1.40056 | 1.40056
[3], w2 = 0.385 | – | – | 1.38611 | 1.38611 | 1.38611
[3], w2 = 0.48 | – | – | 1.37983 | 1.37983 | 1.37983
[4], w2 = 0.008 | 1411.58 | 1411.58 | – | – | –
[4], w2 = 0.015 | 1403.51 | 1403.51 | – | – | –
[4], w2 = 0.032 | 1384.48 | 1384.48 | – | – | –
[4], w2 = 0.084 | 1329.16 | 1329.16 | – | – | –
[4], w2 = 0.156 | 1259.12 | 1259.12 | – | – | –
[4], w2 = 0.202 | 1218.21 | 1218.21 | – | – | –
[4], w2 = 0.385 | 1077.75 | 1077.75 | – | – | –
[4], w2 = 0.48 | 1016.97 | 1016.97 | – | – | –

CCCCCC[n+]1ccn(C)c1.O=S(=O)([N-]S(=O)(=O)C(F)(F)F)C(F)(F)F
Conditions | mass density, [2] [kg/m3] | refractive index, [1]
298.15 K, 101.33 kPa | 1371.99 | 1.43016
313.15 K, 101 kPa | 1356.95 | 1.42542
313.15 K, 101.3 kPa | 1356.95 | –
313.15 K, 101.33 kPa | – | 1.42542

CCO [ethanol]
Conditions | mass density, [2] [kg/m3] | refractive index, [1]
298.15 K, 101.33 kPa | 785.2 | –
313.15 K, 101 kPa | 773.03 | 1.35353
313.15 K, 101.3 kPa | 773.03 | –
313.15 K, 101.33 kPa | – | 1.35353
